Data as given in patent publication US10710986B2, “PD-1/PD-L1 inhibitors” (Gilead Sciences, Inc., priority 2018, dated 2020).

Each molecule was assayed against PD-1/PD-L1 (Homo sapiens (Human), UniProt Q9NZQ7) (assay: PD-1/PD-L1 biochemical protein-protein interaction assay (ALPHA)). Conditions: 0.3 nM His tagged PD-L1, 2.5 nM biotinylated Fc-PD-1, 60 minutes at 25° C., read-out: IC50 PD-L1-PD1.
Chain of PD-1/PD-L1 (Q9NZQ7 19-238): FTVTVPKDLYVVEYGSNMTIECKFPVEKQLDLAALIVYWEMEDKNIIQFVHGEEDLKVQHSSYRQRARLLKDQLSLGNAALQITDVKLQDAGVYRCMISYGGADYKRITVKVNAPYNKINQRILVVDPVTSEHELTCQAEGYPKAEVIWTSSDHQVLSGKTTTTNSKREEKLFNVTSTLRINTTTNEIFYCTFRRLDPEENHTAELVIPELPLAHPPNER
For `COc1nc(-c2cccc(-c3cccc(-c4cnc(CNC[C@@H]5CCC(=O)N5)c(OC)n4)c3Cl)c2Cl)cnc1CNCC1CNC1` [compound 255], the IC50 was 0.08 nM. For `COc1nc(-c2cccc(-c3cccc(-c4cnc(CN5CCN(C=O)CC5)c(OC)n4)c3Cl)c2Cl)cnc1CNC[C@@H]1CCC(=O)N1` [compound 256], the IC50 was 0.16 nM. Work on `COc1nc(-c2cccc(-c3cccc(-c4cnc(CN[C@H](CO)C(C)C)c(OC)n4)c3Cl)c2Cl)cnc1CNC[C@@H]1CCC(=O)N1` [compound 257] yielded an IC50 of 0.426 nM. For `COc1nc(-c2cccc(-c3cccc(-c4cnc(CN(CCO)CC(F)(F)F)c(OC)n4)c3Cl)c2Cl)cnc1CNC[C@@H]1CCC(=O)N1` [compound 258], the IC50 was 0.673 nM. `COc1nc(-c2cccc(-c3cccc(-c4cnc(CN5CCN[C@H](C6CC6)C5)c(OC)n4)c3Cl)c2Cl)cnc1CNC[C@@H]1CCC(=O)N1` [compound 259] gave an IC50 of 0.273 nM. With `COc1nc(-c2cccc(-c3cccc(-c4cnc(CN5CC[C@@H](OC)[C@@H](F)C5)c(OC)n4)c3Cl)c2Cl)cnc1CNC[C@@H]1CCC(=O)N1` [compound 260] the IC50 was 0.295 nM. `COc1nc(-c2cccc(-c3cccc(-c4cnc(CN5CCCC(F)(CO)C5)c(OC)n4)c3Cl)c2Cl)cnc1CNC[C@@H]1CCC(=O)N1` (stereo partly shown) [compound 261] showed an IC50 of 0.128 nM. `COc1nc(-c2cccc(-c3cccc(-c4cnc(CNC[C@@H]5CC(C)C(=O)N5)c(OC)n4)c3Cl)c2Cl)cnc1CNC[C@@H]1CCC(=O)N1` (stereo partly shown) [compound 262] was tested, and the IC50 was 0.465 nM. With `COc1nc(-c2cccc(-c3cccc(-c4cnc(CN5C[C@@H](O)C[C@@H](F)C5)c(OC)n4)c3Cl)c2Cl)cnc1CNC[C@@H]1CCC(=O)N1` [compound 263] the IC50 was 0.379 nM. `COc1nc(-c2cccc(-c3cccc(-c4cnc(CN5C[C@H](O)C[C@@H](F)C5)c(OC)n4)c3Cl)c2Cl)cnc1CNC[C@@H]1CCC(=O)N1` [compound 264] gave an IC50 of 0.407 nM. `COc1nc(-c2cccc(-c3cccc(-c4cnc(CN5C[C@H](O)[C@@H](F)C5)c(OC)n4)c3Cl)c2Cl)cnc1CNC[C@@H]1CCC(=O)N1` [compound 265] showed an IC50 of 0.225 nM. For `COc1nc(-c2cccc(-c3cccc(-c4cnc(CN5C[C@H](O)[C@@H](C#N)C5)c(OC)n4)c3Cl)c2Cl)cnc1CNC[C@@H]1CCC(=O)N1` [compound 266], the IC50 was 0.243 nM. `COc1nc(-c2cccc(-c3cccc(-c4cnc(CNC5CCC(F)(F)C5)c(OC)n4)c3Cl)c2Cl)cnc1CNC[C@@H]1CCC(=O)N1` (stereo partly shown) [compound 267] showed an IC50 of 0.606 nM. `COc1nc(-c2cccc(-c3cccc(-c4cnc(CN[C@H]5C[C@H]5CO)c(OC)n4)c3Cl)c2Cl)cnc1CNC[C@@H]1CCC(=O)N1` [compound 268] gave an IC50 of 0.352 nM. With `COc1nc(-c2cccc(-c3cccc(-c4cnc(CN5CCN(C6CC6)CC5)c(OC)n4)c3Cl)c2Cl)cnc1CNC[C@@H]1CCC(=O)N1` [compound 269] the IC50 was 0.23 nM. Molecule `COc1nc(-c2cccc(-c3cccc(-c4cnc(CN5CCC[C@@H](F)C5)c(OC)n4)c3Cl)c2Cl)cnc1CNC[C@@H]1CCC(=O)N1` [compound 270] has an IC50 of 0.378 nM. `COc1nc(-c2cccc(-c3cccc(-c4cnc(CN5CCCC(F)(F)C5)c(OC)n4)c3Cl)c2Cl)cnc1CNC[C@@H]1CCC(=O)N1` [compound 271] was tested, and the IC50 was 1.7 nM. `COc1nc(-c2cccc(-c3cccc(-c4cnc(CN5CCCC(C(F)F)C5)c(OC)n4)c3Cl)c2Cl)cnc1CNC[C@@H]1CCC(=O)N1` (stereo partly shown) [compound 272] gave an IC50 of 2.43 nM. Molecule `COc1nc(-c2cccc(-c3cccc(-c4cnc(CNC5CC6CC6C5)c(OC)n4)c3Cl)c2Cl)cnc1CNC[C@@H]1CCC(=O)N1` (stereo partly shown) [compound 273] has an IC50 of 0.265 nM. `COc1nc(-c2cccc(-c3cccc(-c4cnc(CN[C@H]5C[C@@](C)(O)C5)c(OC)n4)c3Cl)c2Cl)cnc1CNC[C@@H]1CCC(=O)N1` [compound 274] was tested, and the IC50 was 0.117 nM. Work on `COc1nc(-c2cccc(-c3cccc(-c4cnc(CNC[C@H]5C[C@H](O)C5)c(OC)n4)c3Cl)c2Cl)cnc1CNC[C@@H]1CCC(=O)N1` [compound 275] yielded an IC50 of 0.064 nM. `COc1nc(-c2cccc(-c3cccc(-c4cnc(CN[C@@H]5C[C@H]5CO)c(OC)n4)c3Cl)c2Cl)cnc1CNC[C@@H]1CCC(=O)N1` [compound 276] gave an IC50 of 0.27 nM. `COc1nc(-c2cccc(-c3cccc(-c4cnc(CN5CC[C@H](O)[C@@H](F)C5)c(OC)n4)c3Cl)c2Cl)cnc1CNC[C@@H]1CCC(=O)N1` [compound 277] showed an IC50 of 0.652 nM. For `COc1nc(-c2cccc(-c3cccc(-c4cnc(CN5CC[C@@H](O)[C@@H](F)C5)c(OC)n4)c3Cl)c2Cl)cnc1CNC[C@@H]1CCC(=O)N1` [compound 278], the IC50 was 0.538 nM. For `COc1nc(-c2cccc(-c3cccc(-c4cnc(CN5CC[C@@H](O)[C@H](F)C5)c(OC)n4)c3Cl)c2Cl)cnc1CNC[C@@H]1CCC(=O)N1` [compound 279], the IC50 was 0.343 nM. Molecule `COc1nc(-c2cccc(-c3cccc(-c4cnc(CN5CC[C@H](O)[C@H](F)C5)c(OC)n4)c3Cl)c2Cl)cnc1CNC[C@@H]1CCC(=O)N1` [compound 280] has an IC50 of 0.18 nM. `COc1nc(-c2cccc(-c3cccc(-c4cnc(CNC[C@@H]5CCC(=O)N5)c(OC)n4)c3Cl)c2Cl)cnc1CNCC1COC(=O)N1` (stereo partly shown) [compound 281] gave an IC50 of 1.19 nM. For `COc1nc(-c2cccc(-c3cccc(-c4cnc(CN5CCC(F)(F)CC5)c(OC)n4)c3Cl)c2Cl)cnc1CNC[C@@H]1CCC(=O)N1` [compound 282], the IC50 was 1.57 nM. Molecule `COc1nc(-c2cccc(-c3cccc(-c4cnc(CNC5CC(F)C5)c(OC)n4)c3Cl)c2Cl)cnc1CNC[C@@H]1CCC(=O)N1` (stereo partly shown) [compound 283] has an IC50 of 0.711 nM. `COc1nc(-c2cccc(-c3cccc(-c4cnc(CNC5CC(F)(F)C5)c(OC)n4)c3Cl)c2Cl)cnc1CNC[C@@H]1CCC(=O)N1` [compound 284] showed an IC50 of 0.816 nM. For `COc1nc(-c2cccc(-c3cccc(-c4cnc(CN5CCCC(NC(C)=O)C5)c(OC)n4)c3Cl)c2Cl)cnc1CNC[C@H]1CCC(=O)N1` (stereo partly shown) [compound 285], the IC50 was 0.358 nM. In the case of `COc1nc(-c2cccc(-c3cccc(-c4cnc(CNCC5(O)CCS(=O)(=O)C5)c(OC)n4)c3Cl)c2Cl)cnc1CNC[C@@H]1CCC(=O)N1` (stereo partly shown) [compound 286], the IC50 is reported as 0.06 nM. `COc1nc(-c2cccc(-c3cccc(-c4cnc(CN5CC[C@H]6CNC(=O)[C@H]65)c(OC)n4)c3Cl)c2Cl)cnc1CNC[C@@H]1CCC(=O)N1` [compound 287] gave an IC50 of 0.34 nM. `CNC(=O)CNCc1ncc(-c2cccc(-c3cccc(-c4cnc(CNC[C@@H]5CCC(=O)N5)c(OC)n4)c3Cl)c2Cl)nc1OC` [compound 288] was tested, and the IC50 was 0.26 nM. `COc1nc(-c2cccc(-c3cccc(-c4cnc(CN5CC6(CC(O)C6)C5)c(OC)n4)c3Cl)c2Cl)cnc1CNC[C@@H]1CCC(=O)N1` [compound 289] was tested, and the IC50 was 0.06 nM. `COc1nc(-c2cccc(-c3cccc(-c4cnc(CN5CCC6(CC5)NC(=O)NC6=O)c(OC)n4)c3Cl)c2Cl)cnc1CNC[C@@H]1CCC(=O)N1` [compound 290] was tested, and the IC50 was 0.259 nM. `COc1nc(-c2cccc(-c3cccc(-c4cnc(CN5CCCC6(C5)NC(C)=NC6=O)c(OC)n4)c3Cl)c2Cl)cnc1CNC[C@@H]1CCC(=O)N1` (stereo partly shown) [compound 291] was tested, and the IC50 was 0.216 nM. For `COc1nc(-c2cccc(-c3cccc(-c4cnc(CN5CCC6(C5)NC(=O)NC6=O)c(OC)n4)c3Cl)c2Cl)cnc1CNC[C@@H]1CCC(=O)N1` (stereo partly shown) [compound 292], the IC50 was 0.229 nM. For `COc1nc(-c2cccc(-c3cccc(-c4cnc(CN5CCCC6(C5)NC(=O)NC6=O)c(OC)n4)c3Cl)c2Cl)cnc1CNC[C@@H]1CCC(=O)N1` (stereo partly shown) [compound 293], the IC50 was 0.516 nM. `COc1nc(-c2cccc(-c3cccc(-c4cnc(CN5CCC6(C5)NC(=O)N(C)C6=O)c(OC)n4)c3Cl)c2Cl)cnc1CNC[C@@H]1CCC(=O)N1` (stereo partly shown) [compound 294] was tested, and the IC50 was 0.298 nM. For `COc1nc(-c2cccc(-c3cccc(-c4cnc(CN[C@@H]5CCO[C@@H]5C)c(OC)n4)c3Cl)c2Cl)cnc1CNC[C@@H]1CCC(=O)N1` [compound 295], the IC50 was 0.414 nM. In the case of `COc1nc(-c2cccc(-c3cccc(-c4cnc(CNC[C@@H]5CCC(=O)N5)c(OC)n4)c3Cl)c2Cl)cnc1CNC[C@H]1CCOC1` [compound 296], the IC50 is reported as 0.222 nM. `COc1nc(-c2cccc(-c3cccc(-c4cnc(CN(C)[C@H]5CCOC5)c(OC)n4)c3Cl)c2Cl)cnc1CNC[C@@H]1CCC(=O)N1` [compound 297] showed an IC50 of 0.254 nM. For `COc1nc(-c2cccc(-c3cccc(-c4cnc(CN5CCC6(CC(CO)C6)C5)c(OC)n4)c3Cl)c2Cl)cnc1CNC[C@@H]1CCC(=O)N1` (stereo partly shown) [compound 298], the IC50 was 0.181 nM. Molecule `COc1nc(-c2cccc(-c3cccc(-c4cnc(CN5CC[C@@H](CO)[C@@H](O)C5)c(OC)n4)c3Cl)c2Cl)cnc1CNC[C@@H]1CCC(=O)N1` [compound 300] has an IC50 of 0.299 nM. In the case of `COc1nc(-c2cccc(-c3cccc(-c4cnc(CN5CC6(CCS6(=O)=O)C5)c(OC)n4)c3Cl)c2Cl)cnc1CNC[C@@H]1CCC(=O)N1` [compound 301], the IC50 is reported as 0.25 nM. `COc1nc(-c2cccc(-c3cccc(-c4cnc(CNC[C@@H]5CCC(=O)N5)c(OC)n4)c3Cl)c2Cl)cnc1CNCC(N)=O` [compound 302] showed an IC50 of 0.089 nM. Molecule `COc1nc(-c2cccc(-c3cccc(-c4cnc(CNC[C@@H]5CCC(=O)N5C)c(OC)n4)c3Cl)c2Cl)cnc1CNC[C@@H]1CCC(=O)N1` [compound 303] has an IC50 of 0.256 nM. Work on `COc1nc(-c2cccc(-c3cccc(-c4cnc(CN[C@@H](CO)C(N)=O)c(OC)n4)c3Cl)c2Cl)cnc1CNC[C@@H]1CCC(=O)N1` [compound 304] yielded an IC50 of 0.29 nM. Work on `COc1nc(-c2cccc(-c3cccc(-c4cnc(CNC[C@@H]5CCC(=O)N5)c(OC)n4)c3Cl)c2Cl)cnc1CNCc1cccn(C)c1=O` [compound 305] yielded an IC50 of 0.244 nM. Work on `COc1nc(-c2cccc(-c3cccc(-c4cnc(CNC[C@@H]5CCC(=O)N5)c(OC)n4)c3Cl)c2Cl)cnc1CNCC1CCS(=O)(=O)N1` (stereo partly shown) [compound 306] yielded an IC50 of 0.245 nM. `COc1nc(-c2cccc(-c3cccc(-c4cnc(CN5CC6(C5)CC(C)(O)C6)c(OC)n4)c3Cl)c2Cl)cnc1CNC[C@@H]1CCC(=O)N1` [compound 307] was tested, and the IC50 was 0.167 nM. Work on `COc1nc(-c2cccc(-c3cccc(-c4cnc(CN5CC6(C5)CC(O)(C(F)(F)F)C6)c(OC)n4)c3Cl)c2Cl)cnc1CNC[C@@H]1CCC(=O)N1` [compound 308] yielded an IC50 of 0.337 nM. `COC[C@H]1CCN1Cc1ncc(-c2cccc(-c3cccc(-c4cnc(CNC[C@@H]5CCC(=O)N5)c(OC)n4)c3Cl)c2Cl)nc1OC` [compound 309] was tested, and the IC50 was 0.178 nM. `COC[C@@H]1CCN1Cc1ncc(-c2cccc(-c3cccc(-c4cnc(CNC[C@@H]5CCC(=O)N5)c(OC)n4)c3Cl)c2Cl)nc1OC` [compound 310] was tested, and the IC50 was 0.216 nM.
